The record followed here is US20260015354A1, “Solid State Forms of Ensifentrine” (Cipla Limited, priority 2022, published 2026).

The nature of the series: Comparative solubility of crystalline forms of Ensifentrine at pH 3. The series is classed as physicochemical. Conditions: for solubility compared to Form I: comparison in words. The source says: The solubility of Form C1 and Form I disclosed in U.S. Pat. No. 9,062,047 at pH 3 were compared.
The solubility of Form C3 and Form I disclosed in U.S. Pat. No. 9,062,047 at pH 3 was compared.

Values after ≈ are worked out from the molar mass of the structure shown.

The solubility is how much of the substance goes into solution per volume. High values mean a readily soluble substance, low ones a poorly soluble substance.

`COc1cc2c(cc1OC)-c1c/c(=N\c3c(C)cc(C)cc3C)n(CCNC(N)=O)c(=O)n1CC2` [Form C1]: the “solubility compared to Form I” value was “better solubility compared to Form I”.

Consider `COc1cc2c(cc1OC)-c1c/c(=N\c3c(C)cc(C)cc3C)n(CCNC(N)=O)c(=O)n1CC2` [Form C3], for which the “solubility compared to Form I” value is reported as “better solubility compared to Form I”. Where the note is “time 15 min”, this compound returned a solubility of 2110 µg/mL (≈ 4.42 mM). The same compound registered a solubility (time 30 min) of 1960 µg/mL (≈ 4.1 mM). The same compound gave a solubility (time 60 min) of 2000 µg/mL (≈ 4.19 mM). Further, the solubility (time 120 min) was 2050 µg/mL (≈ 4.29 mM). Further, the solubility (time 240 min) was found to be 2130 µg/mL (≈ 4.46 mM).

Consider `COc1cc2c(cc1OC)-c1c/c(=N\c3c(C)cc(C)cc3C)n(CCNC(N)=O)c(=O)n1CC2` [Form I, reference compound], for which the solubility by setting is: (time 15 min) 1380 µg/mL (≈ 2.89 mM); (time 30 min) 1390 µg/mL (≈ 2.91 mM); (time 60 min) 1310 µg/mL (≈ 2.74 mM); (time 120 min) 1350 µg/mL (≈ 2.83 mM); (time 240 min) 1390 µg/mL (≈ 2.91 mM).
